Numbered stars: 1 amine (or outer) side, 2 acyl side, 3 side chain; on linkers, the order of the positions; unused ones are H or OH. Bridge positions count the residues as written; N and C are the ends. Square brackets hold non-standard residues; d marks the D form. Peptide text beside a SMILES is read from it. * marks the point of attachment. ξ: configuration not given here. pTerphenylCO(4''-OnC5H11) = CCCCCOc1ccc(-c2ccc(-c3ccc(C(=O)*)cc3)cc2)cc1; Orn(4R-OH,5R-OH) = O=C([C@H](C[C@@H](O)[C@@H](O)N[*:3])N[*:1])[*:2]; Pro(3S-OH,4S-Me) = C[C@H]1CN[C@H](C(=O)O)[C@H]1O; hTyr(3R-OH) = N[C@H](C(=O)O)[C@H](O)Cc1ccc(O)cc1; Hyp = O=C(O)[C@@H]1C[C@@H](O)CN1; Thr(3ξ) = CC(O)[C@H](N)C(=O)O
Legend:
Pneumocystis carinii = conditions: cited from earlier work
C. parapsilosis = conditions: in vitro
Cryptococcus neoformans = conditions: in vitro
A. Fumigatus [1] = conditions: murine model of organ recovery, cited from earlier work
C. albicans = conditions: in vitro
A. fumigatus [2] = conditions: in vitro
Histoplasma capsulatum = conditions: in vitro
[3] = the molecule shown is the open-chain precursor; other bond; 21-membered ring; SnCl2/NaHCO3; CH2Cl2; 2.0 mM
[4] = the molecule shown is the open-chain precursor; amide bond; 21-membered ring; H2/Pd-C (EtOH/AcOH), then Et3N; Et2O; 2.1 mM; 2 steps

CCCCCOc1ccc(-c2ccc(-c3ccc(C(=O)N[C@H]4C[C@@H](O)[C@@H](O)NC(=O)[C@@H]5[C@@H](O)[C@@H](C)CN5C(=O)[C@H](C(C)O)NC(=O)[C@H]([C@H](O)Cc5ccc(O)cc5)NC(=O)[C@@H]5C[C@@H](O)CN5C(=O)[C@H](C(C)O)NC4=O)cc3)cc2)cc1 (stereo partly drawn) [Compound C1, reference compound] ({pTerphenylCO(4''-OnC5H11)}-[Orn(4R-OH,5R-OH)][Thr(3ξ)][Hyp][hTyr(3R-OH)][Thr(3ξ)][Pro(3S-OH,4S-Me)]; lactam 1-C)
reduction of the number of cysts in the lungs (Pneumocystis carinii; heavily infected, immunosuppressed rats, orally 5 mg/kg once daily for 4 days): more than 99%
reduction in all life cycle forms (Pneumocystis carinii; prophylactic oral administration of 1 mg/kg twice daily for 4 weeks): > 90%
Minimal Inhibitory Concentration MIC C. parapsilosis (C. parapsilosis): 0.156 µg/mL
Minimal Inhibitory Concentration MIC Cryptococcus neoformans (Cryptococcus neoformans): >20 µg/mL
number of A. Fumigatus recovered from the kidneys (A. Fumigatus [1]; administered intraperitoneally): significantly reduced
effectiveness compared with amphotericin B on a mg/kg basis (A. Fumigatus [1]; both administered intraperitoneally): as effective as amphotericin B
Minimal Inhibitory Concentration MIC C. albicans (C. albicans): 0.01 µg/mL
Minimal Inhibitory Concentration MIC A. fumigatus (A. fumigatus [2]): 0.02 µg/mL
Minimal Inhibitory Concentration MIC Histoplasma capsulatum (Histoplasma capsulatum): 0.01 µg/mL

Boc-Asp-semialdehyde(dimethyl acetal)-Thr(TBS)-Hyp(TBS)-hTyr(3-OTBS,4'-OTBS)-Thr(TBS)-Pro(3-OTBS,4-Me)-NHNH2?
ring closure, crude yield [3]: 100%

Boc-Orn-Val-Hyp(TBS)-hTyr(3-OTBS,4'-OTBS)-Thr(TBS)-Pro(3-OTBS,4-Me)-N(Boc)2?
ring closure, isolated yield [4]: 43%

— patent publication US6939946B2, “Ring modified cyclic peptide analogs” (Eli Lilly and Company, priority 1998, dated 2005)
